Measurements as given in ChEMBL document CHEMBL4706585, “Novel 2-indolinone thiazole hybrids as sunitinib analogues: Design, synthesis, and potent VEGFR-2 inhibition with potential anti-renal cancer activity” (Eur J Med Chem, 2020).

What was measured:
[1] = Cytotoxicity against human RPTEC/TERT1 cells assessed as reduction in cell viability after 48 hrs by MTT assay
A498 = test: Cytotoxicity against human A498 cells assessed as reduction in cell viability after 48 hrs by MTT assay; settings: A498, 48 h
CAKI-1 = test: Cytotoxicity against human CAKI-1 cells assessed as reduction in cell viability after 48 hrs by MTT assay; settings: CAKI-1, 48 h

| SMILES | IC50 [1] | IC50 (A498) | IC50 (CAKI-1) |
| --- | --- | --- | --- |
| CCN(CC)CCNC(=O)c1c(C)[nH]c(/C=C2\C(=O)Nc3ccc(F)cc32)c1C [SUNITINIB] | 16.9 µM | 1.25 µM | 4.93 µM |
| O=C1CS/C(=N\N=C2/C(=O)N(Cc3ccccc3)c3ccc(Cl)cc32)N1 | – | 3.45 µM | 35.6 µM |
| NC1=NNC(=O)/C1=C1/C(=O)N(Cc2ccccc2)c2ccc(Cl)cc21 | – | 8.53 µM | 0.82 µM |
| CCOC(=O)/C(=N/Nc1ccc(C)cc1)S/C(N)=N\N=C1/C(=O)N(Cc2ccccc2)c2ccc(Cl)cc21 | – | 2.88 µM | 3.9 µM |
| CC(=O)c1s/c(=N\N=C2/C(=O)N(Cc3ccccc3)c3ccc(Cl)cc32)[nH]c1C | – | 6.27 µM | 12.8 µM |
| O=C1/C(=N\N=c2\[nH]c(-c3ccc([N+](=O)[O-])cc3)cs2)c2cc(Cl)ccc2N1Cc1ccccc1 | – | 24.7 µM | 5.78 µM |
| CCOC(=O)c1s/c(=N\N=C2/C(=O)N(Cc3ccccc3)c3ccc(Cl)cc32)[nH]c1C | 49.8 µM | 1.23 µM | 3.31 µM |
